In patent publication US9409908B2 (priority 2012, dated 2016):
Where a name gives a salt, the structure may show the parent alone.

Assays:
[1] = molecular target: purified human Factor XIa (Homo sapiens (Human), UniProt P03951); assay: biochemical; type: biochemical; conditions: read-out: Factor XIa Ki
[2] = molecular target: purified human plasma kallikrein (Homo sapiens (Human), UniProt P03952); assay: biochemical; type: biochemical; conditions: read-out: Plasma Kallikrein Ki
purified human plasma kallikrein, sequence (P03952 whole entry, looked up): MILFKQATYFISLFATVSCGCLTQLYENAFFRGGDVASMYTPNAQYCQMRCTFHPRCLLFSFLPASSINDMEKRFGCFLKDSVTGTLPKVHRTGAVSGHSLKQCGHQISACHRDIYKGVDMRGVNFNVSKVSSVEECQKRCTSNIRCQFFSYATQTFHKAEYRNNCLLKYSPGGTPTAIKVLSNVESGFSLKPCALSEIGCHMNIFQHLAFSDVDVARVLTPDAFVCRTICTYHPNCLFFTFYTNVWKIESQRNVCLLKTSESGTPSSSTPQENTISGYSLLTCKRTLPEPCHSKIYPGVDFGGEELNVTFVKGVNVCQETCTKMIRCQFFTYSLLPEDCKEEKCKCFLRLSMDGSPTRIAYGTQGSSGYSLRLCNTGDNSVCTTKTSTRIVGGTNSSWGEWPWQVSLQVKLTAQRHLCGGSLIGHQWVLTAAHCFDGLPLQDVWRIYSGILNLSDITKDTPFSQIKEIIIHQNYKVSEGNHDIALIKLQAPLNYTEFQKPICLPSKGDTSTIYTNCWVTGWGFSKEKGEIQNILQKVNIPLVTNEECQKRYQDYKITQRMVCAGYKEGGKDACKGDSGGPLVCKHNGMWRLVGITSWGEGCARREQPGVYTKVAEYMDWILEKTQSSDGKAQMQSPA
purified human plasma kallikrein, sequence (P03952 whole entry partner, looked up): as the sequence (P03952 whole entry, looked up) above

purified human Factor XIa, sequence (P03951 whole entry, looked up): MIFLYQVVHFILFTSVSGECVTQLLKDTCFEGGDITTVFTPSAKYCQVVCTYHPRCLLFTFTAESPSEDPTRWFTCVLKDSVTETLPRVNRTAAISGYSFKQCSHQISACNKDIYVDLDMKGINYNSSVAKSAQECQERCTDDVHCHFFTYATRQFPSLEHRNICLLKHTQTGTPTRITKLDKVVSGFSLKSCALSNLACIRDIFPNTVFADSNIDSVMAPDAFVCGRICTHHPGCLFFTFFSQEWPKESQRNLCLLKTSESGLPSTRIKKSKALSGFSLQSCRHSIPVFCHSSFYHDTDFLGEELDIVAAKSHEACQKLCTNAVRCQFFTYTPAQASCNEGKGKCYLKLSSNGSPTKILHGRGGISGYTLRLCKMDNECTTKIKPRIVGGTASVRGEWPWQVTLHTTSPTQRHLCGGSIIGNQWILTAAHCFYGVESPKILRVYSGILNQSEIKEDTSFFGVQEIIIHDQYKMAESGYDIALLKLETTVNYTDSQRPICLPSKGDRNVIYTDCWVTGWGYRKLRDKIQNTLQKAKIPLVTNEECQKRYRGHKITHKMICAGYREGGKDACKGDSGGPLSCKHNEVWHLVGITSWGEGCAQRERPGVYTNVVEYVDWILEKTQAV
purified human Factor XIa, sequence (P03951 whole entry partner, looked up): as the sequence (P03951 whole entry, looked up) above

Row | SMILES | Ki [1] [nM] | Ki [2] [nM]
1 | C[C@@H]1CCC[C@H](N2CCC(c3c(C#N)ccc(C#N)c3F)=CC2=O)c2cc(ccn2)-c2ccccc2NC1=O [Example 46, (10R,14S)-14-[4-(3,6-Dicyano-2-fluorophenyl)-6-oxo-1,2,3,6-tetrahydropyridin-1-yl]-10-methyl-8,16-diazatricyclo[13.3.1.0^2,7]nonadeca-1(19),2,4,6,15,17-hexaen-9-one, TFA salt] | 325 | 669
2 | C[C@@H]1CCC[C@H](N2CCC(c3cccc(Cl)c3F)=CC2=O)c2cc(ccn2)-c2ccccc2NC1=O [Example 47, (10R,14S)-14-[4-(3-Chloro-2-fluorophenyl)-6-oxo-1,2,3,6-tetrahydropyridin-1-yl]-10-methyl-8,16-diazatricyclo[13.3.1.0^2,7]nonadeca-1(19),2,4,6,15,17-hexaen-9-one, TFA salt] | 86.3 | 66
3 | C[C@@H]1CCC[C@H](N2CCC(c3c(C#N)ccc(Cl)c3F)=CC2=O)c2cc(ccn2)-c2ccccc2NC1=O [Example 49, 4-Chloro-3-fluoro-2-{1-[(10R,14S)-10-methyl-9-oxo-8,16-diazatricyclo[13.3.1.0^2,7]nonadeca-1(19),2,4,6,15,17-hexaen-14-yl]-6-oxo-1,2,3,6-tetrahydropyridin-4-yl}benzonitrile, TFA salt] | 1.06 | 3
4 | C[C@@H]1CCC[C@H](N2CCC(c3c(F)cccc3C#N)=CC2=O)c2cc(ccn2)-c2ccccc2NC1=O [Example 50, 3-Fluoro-2-{1-[(10R,14S)-10-methyl-9-oxo-8,16-diazatricyclo[13.3.1.0^2,7]nonadeca-1(19),2,4,6,15,17-hexaen-14-yl]-6-oxo-1,2,3,6-tetrahydropyridin-4-yl}benzonitrile, TFA salt] | 102 | 130
5 | C[C@@H]1CCC[C@H](N2CCC(c3c(C4CC4)ccc(Cl)c3F)=CC2=O)c2cc(ccn2)-c2ccccc2NC1=O [Example 52, (10R,14S)-14-[4-(3-Chloro-6-cyclopropyl-2-fluorophenyl)-6-oxo-1,2,3,6-tetrahydropyridin-1-yl]-10-methyl-8,16-diazatricyclo[13.3.1.0^2,7]nonadeca-1(19),2,4,6,15,17-hexaen-9-one, TFA salt] | 45.6 | 193
6 | C[C@@H]1CCC[C@H](N2CCC(c3c(F)ccc(Cl)c3F)=CC2=O)c2cc(ccn2)-c2ccc(NC(=O)OCCO)cc2NC1=O [Example 54, 2-Hydroxyethyl N-[(10R,14S)-14-[4-(3-chloro-2,6-difluorophenyl)-6-oxo-1,2,3,6-tetrahydropyridin-1-yl]-10-methyl-9-oxo-8,16-diazatricyclo[13.3.1.0^2,7]nonadeca-1(19),2,4,6,15,17-hexaen-5-yl]carbamate, TFA salt] | 0.08 | 1
7 | C[C@@H]1CCC[C@H](N2CCC(c3c(-c4cn[nH]c4)ccc(Cl)c3F)=CC2=O)c2cc(ccn2)-c2ccccc2NC1=O [Example 55, (10R,14S)-14-{4-[3-Chloro-2-fluoro-6-(1H-pyrazol-4-yl)phenyl]-6-oxo-1,2,3,6-tetrahydropyridin-1-yl}-10-methyl-8,16-diazatricyclo[13.3.1.0^2,7]nonadeca-1(19),2,4,6,15,17-hexaen-9-one, TFA salt] | 2.73 | 19
8 | C[C@@H]1CCC[C@H](N2CCC(c3c(-c4ccncc4)ccc(Cl)c3F)=CC2=O)c2cc(ccn2)-c2ccccc2NC1=O [Example 56, (10R,14S)-14-{4-[3-Chloro-2-fluoro-6-(pyridin-4-yl)phenyl]-6-oxo-1,2,3,6-tetrahydropyridin-1-yl}-10-methyl-8,16-diazatricyclo[13.3.1.0^2,7]nonadeca-1(19),2,4,6,15,17-hexaen-9-one, TFA salt] | 16.5 | 137
9 | C[C@@H]1CCC[C@H](N2CCC(c3c(-c4ccccc4)ccc(Cl)c3F)=CC2=O)c2cc(ccn2)-c2ccccc2NC1=O [Example 57, (10R,14S)-14-[4-(3-Chloro-2-fluoro-6-phenylphenyl)-6-oxo-1,2,3,6-tetrahydropyridin-1-yl]-10-methyl-8,16-diazatricyclo[13.3.1.0^2,7]nonadeca-1(19),2,4,6,15,17-hexaen-9-one, TFA salt] | 35.6 | 351
10 | C[C@@H]1CCC[C@H](N2CCC(c3c(-c4cccnc4)ccc(Cl)c3F)=CC2=O)c2cc(ccn2)-c2ccccc2NC1=O [Example 58, (10R,14S)-14-{4-[3-Chloro-2-fluoro-6-(pyridin-3-yl)phenyl]-6-oxo-1,2,3,6-tetrahydropyridin-1-yl}-10-methyl-8,16-diazatricyclo[13.3.1.0^2,7]nonadeca-1(19),2,4,6,15,17-hexaen-9-one, TFA salt] | 15.1 | 179
11 | Cc1nn(C)cc1-c1ccc(Cl)c(F)c1C1=CC(=O)N([C@H]2CCC[C@@H](C)C(=O)Nc3ccccc3-c3ccnc2c3)CC1 [Example 60, (10R,14S)-14-{4-[3-Chloro-6-(1,3-dimethyl-1H-pyrazol-4-yl)-2-fluorophenyl]-6-oxo-1,2,3,6-tetrahydropyridin-1-yl}-10-methyl-8,16-diazatricyclo[13.3.1.0^2,7]nonadeca-1(19),2,4,6,15,17-hexaen-9-one, TFA salt] | > 409 | 1090
12 | COC(=O)Nc1cc2c(cc1I)-c1ccnc(c1)[C@@H](N1CCC(c3c(F)ccc(Cl)c3F)=CC1=O)CCC[C@@H](C)C(=O)N2 [Example 62, Methyl N-[(10R,14S)-14-[4-(3-chloro-2,6-difluorophenyl)-6-oxo-1,2,3,6-tetrahydropyridin-1-yl]-4-iodo-10-methyl-9-oxo-8,16-diazatricyclo[13.3.1.0^2,7]nonadeca-1(19),2,4,6,15,17-hexaen-5-yl]carbamate, TFA salt] | 196 | 1100
13 | CC(=O)NC(=S)Nc1ccc2c(c1)NC(=O)[C@H](C)CCC[C@H](N1CCC(c3c(F)ccc(Cl)c3F)=CC1=O)c1cc-2ccn1 [Example 63, 3-Acetyl-1-[(10R,14S)-14-[4-(3-chloro-2,6-difluorophenyl)-6-oxo-1,2,3,6-tetrahydropyridin-1-yl]-10-methyl-9-oxo-8,16-diazatricyclo[13.3.1.0^2,7]nonadeca-1(19),2,4,6,15,17-hexaen-5-yl]thiourea] | 7.86 | 48
14 | COC(=O)Nc1ccc2c(c1)NC(=O)[C@H](C)CCC[C@H](N1CCC(c3c(F)ccc(Cl)c3F)=C(C)C1=O)c1cc-2ccn1 [Example 64, Methyl N-[(10R,14S)-14-[4-(3-chloro-2,6-difluorophenyl)-5-methyl-6-oxo-1,2,3,6-tetrahydropyridin-1-yl]-10-methyl-9-oxo-8,16-diazatricyclo[13.3.1.0^2,7]nonadeca-1(19),2,4,6,15,17-hexaen-5-yl]carbamate, TFA salt] | 16.6 | 171
15 | C[C@@H]1CCC[C@H](n2ccc(-c3cccc(Cl)c3F)cc2=O)c2cc(ccn2)-c2ccccc2NC1=O [Example 65, (10R,14S)-14-[4-(3-Chloro-2-fluorophenyl)-2-oxo-1,2-dihydropyridin-1-yl]-10-methyl-8,16-diazatricyclo[13.3.1.0^2,7]nonadeca-1(19),2,4,6,15,17-hexaen-9-one, TFA salt] | 47.6 | 53
16 | C[C@@H]1CCC[C@H](N2CCC(c3c(N)ccc(Cl)c3F)=CC2=O)c2cc(ccn2)-c2ccccc2NC1=O [Example 66, (10R,14S)-14-[4-(6-Amino-3-chloro-2-fluorophenyl)-6-oxo-1,2,3,6-tetrahydropyridin-1-yl]-10-methyl-8,16-diazatricyclo[13.3.1.0^2,7]nonadeca-1(19),2,4,6,15,17-hexaen-9-one, TFA salt] | 66.6 | 45
17 | C[C@@H]1CCC[C@H](N2CCC(c3c(F)ccc(Cl)c3F)=CC2=O)c2cc(ccn2)-c2ccc(Br)cc2NC1=O [Example 69, (10R,14S)-5-Bromo-14-[4-(3-chloro-2,6-difluorophenyl)-6-oxo-1,2,3,6-tetrahydropyridin-1-yl]-10-methyl-8,16-diazatricyclo[13.3.1.0^2,7]nonadeca-1(19),2,4,6,15,17-hexaen-9-one, TFA salt] | 79.2 | 338
18 | C[C@@H]1CCC[C@H](N2CCC(c3c(F)ccc(Cl)c3F)=CC2=O)c2cc(cc[n+]2[O-])-c2ccc(N)cc2NC1=O [Example 70, (10R,14S)-5-Amino-14-[4-(3-chloro-2,6-difluorophenyl)-6-oxo-1,2,3,6-tetrahydropyridin-1-yl]-10-methyl-9-oxo-8,16-diazatricyclo[13.3.1.0^2,7]nonadeca-1(19),2,4,6,15,17-hexaen-16-ium-16-olate, TFA salt] | 8.02 | 18
19 | C[C@@H]1CCC[C@H](N2CCC(c3cc(Cl)ccc3-n3cncn3)=CC2=O)c2cc(ccn2)-c2ccccc2NC1=O [Example 71, (10R,14S)-14-{4-[5-Chloro-2-(1H-1,2,4-triazol-1-yl)phenyl]-6-oxo-1,2,3,6-tetrahydropyridin-1-yl}-10-methyl-8,16-diazatricyclo[13.3.1.0^2,7]nonadeca-1(19),2(7),3,5,15,17-hexaen-9-one, TFA salt] | 1.68 | 60
20 | COC(=O)Nc1ccc2c(c1)NC(=O)[C@H](C)CCC[C@H](N1CC(C)C(c3c(F)ccc(Cl)c3F)=CC1=O)c1cc-2ccn1 (stereo partly drawn) [Example 73, Methyl N-[(10R,14S)-14-[4-(3-chloro-2,6-difluorophenyl)-3-methyl-6-oxo-1,2,3,6-tetrahydropyridin-1-yl]-10-methyl-9-oxo-8,16-diazatricyclo[13.3.1.0^2,7]nonadeca-1(19),2(7),3,5,15,17-hexaen-5-yl]carbamate, TFA salt] | 0.88 | 6
21 | Cc1ncn(-c2ccc(Cl)cc2C2=CC(=O)N([C@H]3CCC[C@@H](C)C(=O)Nc4ccccc4-c4ccnc3c4)CC2)n1 [Example 74, (10R,14S)-14-{4-[5-Chloro-2-(3-methyl-1H-1,2,4-triazol-1-yl)phenyl]-6-oxo-1,2,3,6-tetrahydropyridin-1-yl}-10-methyl-8,16-diazatricyclo[13.3.1.0^2,7]nonadeca-1(19),2(7),3,5,15,17-hexaen-9-one, TFA salt] | 40.1 | 238
